Data as given in PubChem BioAssay (NCI).
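Compound exposure: 48 hours, 5 concentrations, 96-well plates. The concentration for 50% growth inhibition is given as GI50. The concentration for full growth arrest is given as TGI.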

Key:
Experiment in all cases: NCI tumour cell line growth inhibition, 48 h
UACC-257 melanoma = tested on: UACC-257 melanoma
SK-MEL-5 melanoma = tested on: SK-MEL-5 melanoma
HT29 colon = tested on: HT29 colon
OVCAR-4 ovarian = tested on: OVCAR-4 ovarian
A498 renal = tested on: A498 renal
MDA-MB-231 breast = tested on: MDA-MB-231 breast
SNB-75 CNS = tested on: SNB-75 CNS
LOX IMVI melanoma = tested on: LOX IMVI melanoma
CCRF-CEM leukemia = tested on: CCRF-CEM leukemia
U251 CNS = tested on: U251 CNS

Question: Which results are given for `CC(=O)O/N=C1\C=Cc2c(no[n+]2[O-])C1=O`?
Answer: TGI (UACC-257 melanoma): 32.2 µM; TGI (SK-MEL-5 melanoma): 31.6 µM; TGI (HT29 colon): 32.4 µM; TGI (OVCAR-4 ovarian): 31.5 µM; TGI (A498 renal): 30.3 µM; TGI (MDA-MB-231 breast): 34.4 µM; TGI (SNB-75 CNS): 35.5 µM; TGI (LOX IMVI melanoma): 36.2 µM; TGI (CCRF-CEM leukemia): 17.6 µM

Question: Which TGI (UACC-257 melanoma) does the source give for `O=C1OS2(OC(=O)c3cccc4cccc2c34)c2ccccc21` (stereo unspecified) here?
Answer: > 100 µM

Question: And the TGI (SK-MEL-5 melanoma)?
Answer: > 100 µM

Question: What about the TGI (U251 CNS) of the same molecule?
Answer: > 100 µM

Question: And the TGI (HT29 colon)?
Answer: > 100 µM

Question: What about the TGI (OVCAR-4 ovarian) of the same molecule?
Answer: > 100 µM

Question: What about the TGI (A498 renal) of the same molecule?
Answer: > 100 µM

Question: And the TGI (MDA-MB-231 breast)?
Answer: > 100 µM

Question: What about the TGI (LOX IMVI melanoma) of the same molecule?
Answer: > 100 µM

Question: And the TGI (CCRF-CEM leukemia)?
Answer: > 100 µM

Question: With `C(=C/c1ccc2nc(-c3ccc(/C=C/C=N/NC4=NCCCN4)cc3)cn2c1)/C=N/NC1=NCCCN1` as the molecule, how does the TGI (UACC-257 melanoma) read?
Answer: > 100 µM

Question: And the TGI (SK-MEL-5 melanoma)?
Answer: > 100 µM

Question: What about the TGI (U251 CNS) of the same molecule?
Answer: > 100 µM

Question: And the TGI (OVCAR-4 ovarian)?
Answer: > 100 µM

Question: What about the TGI (A498 renal) of the same molecule?
Answer: > 100 µM

Question: And the TGI (MDA-MB-231 breast)?
Answer: 28.5 µM

Question: And the TGI (SNB-75 CNS)?
Answer: > 100 µM

Question: And the TGI (CCRF-CEM leukemia)?
Answer: > 100 µM

Question: For `S=c1sc2ccccc2n1CN1CCN(Cc2ccccc2)CC1`, which TGI (UACC-257 melanoma) is on record?
Answer: > 100 µM

Question: What about the TGI (SK-MEL-5 melanoma) of the same molecule?
Answer: > 100 µM

Question: What about the TGI (U251 CNS) of the same molecule?
Answer: > 100 µM

Question: And the TGI (HT29 colon)?
Answer: > 100 µM

Question: What about the TGI (OVCAR-4 ovarian) of the same molecule?
Answer: > 100 µM

Question: What about the TGI (A498 renal) of the same molecule?
Answer: > 100 µM

Question: What about the TGI (SNB-75 CNS) of the same molecule?
Answer: > 100 µM

Question: And the TGI (LOX IMVI melanoma)?
Answer: > 100 µM

Question: What about the TGI (CCRF-CEM leukemia) of the same molecule?
Answer: > 100 µM

Question: With `CC1(C)OC2C(CO)OC(/N=C(\NC#N)Oc3ccccc3)C2O1` (stereo unspecified) as the molecule, how does the TGI (UACC-257 melanoma) read?
Answer: > 100 µM

Question: What about the TGI (SK-MEL-5 melanoma) of the same molecule?
Answer: > 100 µM

Question: What about the TGI (U251 CNS) of the same molecule?
Answer: > 100 µM

Question: What about the TGI (HT29 colon) of the same molecule?
Answer: > 100 µM

Question: And the TGI (OVCAR-4 ovarian)?
Answer: > 100 µM

Question: What about the TGI (SNB-75 CNS) of the same molecule?
Answer: > 100 µM

Question: What about the TGI (LOX IMVI melanoma) of the same molecule?
Answer: > 100 µM

Question: And the TGI (CCRF-CEM leukemia)?
Answer: > 100 µM

Question: How did the TGI (UACC-257 melanoma) turn out when `NCCCCN(CCCN)C(=O)OCc1ccccc1` was run?
Answer: > 100 µM

Question: What about the TGI (SK-MEL-5 melanoma) of the same molecule?
Answer: > 100 µM

Question: What about the TGI (U251 CNS) of the same molecule?
Answer: > 100 µM

Question: What about the TGI (HT29 colon) of the same molecule?
Answer: > 100 µM

Question: And the TGI (OVCAR-4 ovarian)?
Answer: > 100 µM

Question: And the TGI (A498 renal)?
Answer: > 100 µM

Question: What about the TGI (MDA-MB-231 breast) of the same molecule?
Answer: > 100 µM

Question: And the TGI (SNB-75 CNS)?
Answer: > 100 µM

Question: And the TGI (CCRF-CEM leukemia)?
Answer: > 100 µM

Question: Which GI50 (UACC-257 melanoma) does the source give for `O=C(/C=C/c1ccco1)c1ccc(Nc2ccnc3cc(Cl)ccc23)cc1` here?
Answer: 76 µM

Question: What about the TGI (UACC-257 melanoma) of the same molecule?
Answer: > 100 µM

Question: What about the GI50 (SK-MEL-5 melanoma) of the same molecule?
Answer: 12 µM

Question: And the TGI (SK-MEL-5 melanoma)?
Answer: > 100 µM

Question: What about the GI50 (HT29 colon) of the same molecule?
Answer: 3.09 µM

Question: What about the TGI (HT29 colon) of the same molecule?
Answer: > 100 µM

Question: And the GI50 (OVCAR-4 ovarian)?
Answer: 39.9 µM

Question: And the TGI (OVCAR-4 ovarian)?
Answer: > 100 µM

Question: What about the GI50 (A498 renal) of the same molecule?
Answer: 1.29 µM

Question: What about the TGI (A498 renal) of the same molecule?
Answer: > 100 µM

Question: And the GI50 (MDA-MB-231 breast)?
Answer: 12.8 µM

Question: What about the TGI (MDA-MB-231 breast) of the same molecule?
Answer: 34.7 µM

Question: And the GI50 (SNB-75 CNS)?
Answer: > 100 µM

Question: And the TGI (SNB-75 CNS)?
Answer: > 100 µM

Question: And the GI50 (LOX IMVI melanoma)?
Answer: 6.41 µM

Question: What about the TGI (LOX IMVI melanoma) of the same molecule?
Answer: > 100 µM

Question: And the GI50 (CCRF-CEM leukemia)?
Answer: 6.56 µM

Question: What about the TGI (CCRF-CEM leukemia) of the same molecule?
Answer: > 100 µM

Question: How did the TGI (UACC-257 melanoma) turn out when `Nc1nc(-c2ccccc2)cc(-c2ccc(F)cc2)c1-c1ccc(Cl)cc1` was run?
Answer: > 100 µM

Question: And the TGI (SK-MEL-5 melanoma)?
Answer: > 100 µM

Question: What about the TGI (U251 CNS) of the same molecule?
Answer: > 100 µM

Question: And the TGI (HT29 colon)?
Answer: > 100 µM

Question: What about the TGI (OVCAR-4 ovarian) of the same molecule?
Answer: > 100 µM

Question: What about the TGI (MDA-MB-231 breast) of the same molecule?
Answer: > 100 µM

Question: And the TGI (SNB-75 CNS)?
Answer: > 100 µM

Question: And the TGI (LOX IMVI melanoma)?
Answer: > 100 µM

Question: And the TGI (CCRF-CEM leukemia)?
Answer: > 100 µM

Question: For `Cn1c(=O)c2[nH]c(Nc3ccccc3)nc2n(C)c1=O`, which TGI (UACC-257 melanoma) is on record?
Answer: > 10 µM

Question: What about the TGI (SK-MEL-5 melanoma) of the same molecule?
Answer: > 10 µM

Question: What about the TGI (HT29 colon) of the same molecule?
Answer: > 10 µM

Question: And the TGI (OVCAR-4 ovarian)?
Answer: > 10 µM

Question: What about the TGI (MDA-MB-231 breast) of the same molecule?
Answer: > 10 µM

Question: What about the TGI (SNB-75 CNS) of the same molecule?
Answer: > 10 µM

Question: And the TGI (LOX IMVI melanoma)?
Answer: > 10 µM

Question: And the TGI (CCRF-CEM leukemia)?
Answer: > 10 µM

Question: With `CSCC[C@@H](NC(=O)[C@H](CC(C)C)NC(=O)C(Cc1cnc[nH]1)NC(=O)CNC(=O)[C@@H](NC(=O)[C@H](C)NC(=O)[C@H](Cc1cn(C=O)c2ccccc12)NC(=O)[C@H](CCC(N)=O)NC(=O)[C@@H](N)CC(N)=O)C(C)C)C(N)=O` (stereo partly specified) as the molecule, how does the TGI (UACC-257 melanoma) read?
Answer: > 100 µM

Question: What about the TGI (SK-MEL-5 melanoma) of the same molecule?
Answer: > 100 µM

Question: And the TGI (U251 CNS)?
Answer: > 100 µM

Question: What about the TGI (HT29 colon) of the same molecule?
Answer: > 100 µM

Question: And the TGI (OVCAR-4 ovarian)?
Answer: > 100 µM

Question: And the TGI (A498 renal)?
Answer: > 100 µM

Question: What about the TGI (SNB-75 CNS) of the same molecule?
Answer: > 100 µM

Question: What about the TGI (LOX IMVI melanoma) of the same molecule?
Answer: > 100 µM

Question: What about the TGI (CCRF-CEM leukemia) of the same molecule?
Answer: > 100 µM
